Consider eight molecules from patent publication US20120121591A1 (priority 2009, published 2012).

SMILES strings stand for the structures.

Format in all cases: cell-based
Test [1] concerns IL-2 secretion from T cells in human whole blood. Conditions: read-out: WB (IL-2) IC50 (nM, Avg).
The next test concerns the target hKv1.3 (Homo sapiens, UniProt P22001). As to the kind of experiment: cell-based. Conditions: Kv1.3 (IWQ) IC50 (nM, Avg).
The subject of test [2] is IFN-g secretion from T cells in human whole blood. Conditions: read-out: WB (IFNg) IC50 (nM, Avg).

Sequence of hKv1.3 (P22001 whole entry): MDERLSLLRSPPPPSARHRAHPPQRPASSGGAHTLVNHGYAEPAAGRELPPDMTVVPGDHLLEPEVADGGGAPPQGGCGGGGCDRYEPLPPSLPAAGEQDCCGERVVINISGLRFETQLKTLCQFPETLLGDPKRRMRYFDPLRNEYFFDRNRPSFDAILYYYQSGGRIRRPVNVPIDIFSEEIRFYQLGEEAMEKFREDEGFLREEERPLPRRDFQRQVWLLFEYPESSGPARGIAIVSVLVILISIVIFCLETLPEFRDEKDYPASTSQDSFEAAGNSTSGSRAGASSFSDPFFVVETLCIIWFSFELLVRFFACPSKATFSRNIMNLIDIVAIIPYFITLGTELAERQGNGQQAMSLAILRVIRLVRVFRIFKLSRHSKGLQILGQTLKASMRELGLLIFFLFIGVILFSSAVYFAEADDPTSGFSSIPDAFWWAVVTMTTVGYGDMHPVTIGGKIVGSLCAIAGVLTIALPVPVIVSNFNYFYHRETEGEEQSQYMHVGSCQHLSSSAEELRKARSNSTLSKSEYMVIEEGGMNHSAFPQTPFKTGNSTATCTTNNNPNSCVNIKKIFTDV

Take `CC[C@H](C)[C@@H]1NC(=O)[C@@H](NC(=O)[C@H](CO)NC(=O)[C@@H](N)CCCNC(=N)N)CSSC[C@@H](C(N)=O)NC(=O)[C@H]([C@@H](C)O)NC(=O)CNC(=O)[C@@H]2CSSC[C@@H]3NC(=O)[C@H](CCCCN)NC(=O)[C@H](Cc4ccccc4)NC(=O)[C@H](C)NC(=O)[C@H]([C@@H](C)O)NC(=O)[C@H](CSSC[C@H](NC(=O)[C@H](Cc4ccccc4)NC(=O)[C@H](Cc4ccccc4)NC(=O)[C@H](CC(C)C)NC(=O)[C@H](CCCNC(=N)N)NC(=O)[C@H](Cc4ccc(O)cc4)NC(=O)[C@H](CCCCN)NC(=O)[C@H](CCSC)NC(=O)[C@H](CO)NC(=O)[C@H](Cc4c[nH]cn4)NC(=O)[C@H](CCCCN)NC3=O)C(=O)N[C@@H](CCCCN)C(=O)N[C@@H](CCCCN)C(=O)N[C@@H]([C@@H](C)O)C(=O)N2)NC(=O)[C@H](CCCNC(=N)N)NC(=O)[C@H](CO)NC(=O)[C@H](CCCCN)NC(=O)[C@@H]2CCCN2C(=O)[C@H]([C@@H](C)CC)NC(=O)[C@H]([C@@H](C)O)NC(=O)[C@H](CC(=O)O)NC1=O` [[Lys16, 29;Phe26]ShK-amide]: the IC50 (usually the concentration at which inhibition is half-maximal) turned out to be 1.42 nM in test [1], 0.542 nM against hKv1.3 and 1.36 nM in test [2].
Take `CC[C@@H]1NC(=O)[C@H](CO)NC(=O)[C@H](Cc2c[nH]cn2)NC(=O)[C@H](CCCCN)NC(=O)[C@@H]2CSSC[C@@H]3NC(=O)[C@H]([C@@H](C)O)NC(=O)[C@H](CCCCN)NC(=O)[C@H](CCCNC(=N)N)NC(=O)[C@H](CSSC[C@H](NC(=O)[C@H](CCCNC(=N)N)NC(=O)[C@H](CO)NC(=O)[C@H](CCCCN)NC(=O)[C@@H]4CCCN4C(=O)[C@H]([C@@H](C)CC)NC(=O)[C@H]([C@@H](C)O)NC(=O)[C@H](CC(=O)O)NC(=O)[C@H]([C@@H](C)CC)NC(=O)[C@@H](NC(=O)[C@H](CO)NC(=O)[C@@H](N)CCCNC(=N)N)CSSC[C@@H](C(N)=O)NC(=O)[C@H]([C@@H](C)O)NC(=O)CNC3=O)C(=O)N[C@@H]([C@@H](C)O)C(=O)N[C@@H](C)C(=O)N[C@@H](Cc3ccccc3)C(=O)N[C@@H](CCCCN)C(=O)N2)NC(=O)[C@H](Cc2ccccc2)NC(=O)[C@H](CO)NC(=O)[C@H](CC(C)C)NC(=O)[C@H](CCCNC(=N)N)NC(=O)[C@H](Cc2ccc(O)cc2)NC(=O)[C@H](CCCCN)NC1=O` [[Lys16, Abu21]ShK-amide]: the IC50 in test [1] was determined as 1.2 nM; against hKv1.3, 0.246 nM; in test [2], 1.53 nM.
For the molecule `CC[C@H](C)[C@@H]1NC(=O)[C@@H](NC(=O)[C@H](CO)NC(=O)[C@@H](N)CCCNC(=N)N)CSSC[C@@H](C(N)=O)NC(=O)[C@H]([C@@H](C)O)NC(=O)CNC(=O)[C@@H]2CSSC[C@@H]3NC(=O)[C@H](CCCCN)NC(=O)[C@H](Cc4ccccc4)NC(=O)[C@H](C)NC(=O)[C@H]([C@@H](C)O)NC(=O)[C@H](CSSC[C@H](NC(=O)[C@H](Cc4ccccc4)NC(=O)[C@H](CO)NC(=O)[C@H](CC(C)C)NC(=O)[C@H](CCCNC(=N)N)NC(=O)[C@H](Cc4ccc(O)cc4)NC(=O)[C@H](CCCCN)NC(=O)[C@H](CC(=O)O)NC(=O)[C@H](CO)NC(=O)[C@H](Cc4c[nH]cn4)NC(=O)[C@H](CCCCN)NC3=O)C(=O)N[C@@H](CCCNC(=N)N)C(=O)N[C@@H](CCCCN)C(=O)N[C@@H]([C@@H](C)O)C(=O)N2)NC(=O)[C@H](CCCNC(=N)N)NC(=O)[C@H](CO)NC(=O)[C@H](CCCCN)NC(=O)[C@@H]2CCCN2C(=O)[C@H]([C@@H](C)CC)NC(=O)[C@H]([C@@H](C)O)NC(=O)[C@H](CC(=O)O)NC1=O` [[Lys16, Asp21]ShK-amide], the IC50 in test [1] came to 2.31 nM; at hKv1.3 it was 0.35 nM; in test [2], 3.63 nM.
For `CC[C@H](C)[C@@H]1NC(=O)[C@@H](NC(=O)[C@H](CO)NC(=O)[C@@H](N)CCCNC(=N)N)CSSC[C@@H](C(N)=O)NC(=O)[C@H]([C@@H](C)O)NC(=O)CNC(=O)[C@@H]2CSSC[C@@H]3NC(=O)[C@H](CCCCN)NC(=O)[C@H](Cc4ccccc4)NC(=O)[C@H](C)NC(=O)[C@H]([C@@H](C)O)NC(=O)[C@H](CSSC[C@H](NC(=O)[C@H](Cc4ccccc4)NC(=O)[C@H](CO)NC(=O)[C@H](CC(C)C)NC(=O)[C@H](CCCNC(=N)N)NC(=O)[C@H](Cc4ccc(O)cc4)NC(=O)[C@H](CCCCN)NC(=O)[C@H](CC4CCCCC4)NC(=O)[C@H](CO)NC(=O)[C@H](Cc4c[nH]cn4)NC(=O)[C@H](CCCCN)NC3=O)C(=O)N[C@@H](CCCNC(=N)N)C(=O)N[C@@H](CCCCN)C(=O)N[C@@H]([C@@H](C)O)C(=O)N2)NC(=O)[C@H](CCCNC(=N)N)NC(=O)[C@H](CO)NC(=O)[C@H](CCCCN)NC(=O)[C@@H]2CCCN2C(=O)[C@H]([C@@H](C)CC)NC(=O)[C@H]([C@@H](C)O)NC(=O)[C@H](CC(=O)O)NC1=O` [[Lys16, Cha21]ShK-amide], in that order: 1.74 nM, 0.499 nM and 1.32 nM.
For `CC[C@H](C)[C@@H]1NC(=O)[C@@H](NC(=O)[C@H](CO)NC(=O)[C@@H](N)CCCNC(=N)N)CSSC[C@@H](C(N)=O)NC(=O)[C@H]([C@@H](C)O)NC(=O)CNC(=O)[C@@H]2CSSC[C@@H]3NC(=O)[C@H](CCCCN)NC(=O)[C@H](Cc4ccccc4)NC(=O)[C@H](C)NC(=O)[C@H]([C@@H](C)O)NC(=O)[C@H](CSSC[C@H](NC(=O)[C@H](Cc4ccccc4)NC(=O)[C@H](CO)NC(=O)[C@H](CC(C)C)NC(=O)[C@H](CCCNC(=N)N)NC(=O)[C@H](Cc4ccc(O)cc4)NC(=O)[C@H](CCCCN)NC(=O)[C@H](C4CCCCC4)NC(=O)[C@H](CO)NC(=O)[C@H](Cc4c[nH]cn4)NC(=O)[C@H](CCCCN)NC3=O)C(=O)N[C@@H](CCCNC(=N)N)C(=O)N[C@@H](CCCCN)C(=O)N[C@@H]([C@@H](C)O)C(=O)N2)NC(=O)[C@H](CCCNC(=N)N)NC(=O)[C@H](CO)NC(=O)[C@H](CCCCN)NC(=O)[C@@H]2CCCN2C(=O)[C@H]([C@@H](C)CC)NC(=O)[C@H]([C@@H](C)O)NC(=O)[C@H](CC(=O)O)NC1=O` [[Lys16, Chg21]ShK-amide], the IC50 in test [1] came out at 0.875 nM; on hKv1.3, 0.205 nM; in test [2] it was 0.727 nM.
For the molecule `CC[C@H](C)[C@@H]1NC(=O)[C@@H](NC(=O)[C@H](CO)NC(=O)[C@@H](N)CCCNC(=N)N)CSSC[C@@H](C(N)=O)NC(=O)[C@H]([C@@H](C)O)NC(=O)CNC(=O)[C@@H]2CSSC[C@@H]3NC(=O)[C@H](CCCCN)NC(=O)[C@H](Cc4ccccc4)NC(=O)[C@H](C)NC(=O)[C@H]([C@@H](C)O)NC(=O)[C@H](CSSC[C@H](NC(=O)[C@H](Cc4ccccc4)NC(=O)[C@H](CO)NC(=O)[C@H](CC(C)C)NC(=O)[C@H](CCCNC(=N)N)NC(=O)[C@H](Cc4ccc(O)cc4)NC(=O)[C@H](CCCCN)NC(=O)[C@H](CCC(N)=O)NC(=O)[C@H](CO)NC(=O)[C@H](Cc4c[nH]cn4)NC(=O)[C@H](CCCCN)NC3=O)C(=O)N[C@@H](CCCNC(=N)N)C(=O)N[C@@H](CCCCN)C(=O)N[C@@H]([C@@H](C)O)C(=O)N2)NC(=O)[C@H](CCCNC(=N)N)NC(=O)[C@H](CO)NC(=O)[C@H](CCCCN)NC(=O)[C@@H]2CCCN2C(=O)[C@H]([C@@H](C)CC)NC(=O)[C@H]([C@@H](C)O)NC(=O)[C@H](CC(=O)O)NC1=O` [[Lys16, Gln21]ShK-amide], the IC50 stood at 0.42 nM in test [1], 0.161 nM against hKv1.3 and 0.812 nM in test [2].
Turning to `CC[C@H](C)[C@@H]1NC(=O)[C@@H](NC(=O)[C@H](CO)NC(=O)[C@@H](N)CCCNC(=N)N)CSSC[C@@H](C(N)=O)NC(=O)[C@H]([C@@H](C)O)NC(=O)CNC(=O)[C@@H]2CSSC[C@@H]3NC(=O)[C@H](CCCCN)NC(=O)[C@H](Cc4ccccc4)NC(=O)[C@H](C)NC(=O)[C@H]([C@@H](C)O)NC(=O)[C@H](CSSC[C@H](NC(=O)[C@H](Cc4ccccc4)NC(=O)[C@H](CO)NC(=O)[C@H](CC(C)C)NC(=O)[C@H](CCCNC(=N)N)NC(=O)[C@H](Cc4ccc(O)cc4)NC(=O)[C@H](CCCCN)NC(=O)[C@H](CCSC)NC(=O)[C@H](CO)NC(=O)[C@H](Cc4c[nH]cn4)NC(=O)[C@H](CCC(=O)O)NC3=O)C(=O)N[C@@H](CCCNC(=N)N)C(=O)N[C@@H](CCCCN)C(=O)N[C@@H]([C@@H](C)O)C(=O)N2)NC(=O)[C@H](CCCNC(=N)N)NC(=O)[C@H](CO)NC(=O)[C@H](CCCCN)NC(=O)[C@@H]2CCCN2C(=O)[C@H]([C@@H](C)CC)NC(=O)[C@H]([C@@H](C)O)NC(=O)[C@H](CC(=O)O)NC1=O` [[Lys16, Glu18]ShK-amide], the IC50 was 0.119 nM in test [1], 0.065 nM against hKv1.3 and 0.234 nM in test [2].
Take `CC[C@H](C)[C@@H]1NC(=O)[C@@H](NC(=O)[C@H](CO)NC(=O)[C@@H](N)CCCNC(=N)N)CSSC[C@@H](C(N)=O)NC(=O)[C@H]([C@@H](C)O)NC(=O)CNC(=O)[C@@H]2CSSC[C@@H]3NC(=O)[C@H](CCCCN)NC(=O)[C@H](Cc4ccccc4)NC(=O)[C@H](C)NC(=O)[C@H]([C@@H](C)O)NC(=O)[C@H](CSSC[C@H](NC(=O)[C@H](Cc4ccccc4)NC(=O)[C@H](CO)NC(=O)[C@H](CC(C)C)NC(=O)[C@H](CCCNC(=N)N)NC(=O)[C@H](Cc4ccc(O)cc4)NC(=O)[C@H](CCCCN)NC(=O)[C@H](CCSC)NC(=O)[C@H](CO)NC(=O)[C@H](Cc4c[nH]cn4)NC(=O)[C@H](CCCCN)NC3=O)C(=O)N[C@@H](CCCNC(=N)N)C(=O)N[C@@H](CCC(=O)O)C(=O)N[C@@H]([C@@H](C)O)C(=O)N2)NC(=O)[C@H](CCCNC(=N)N)NC(=O)[C@H](CO)NC(=O)[C@H](CCCCN)NC(=O)[C@@H]2CCCN2C(=O)[C@H]([C@@H](C)CC)NC(=O)[C@H]([C@@H](C)O)NC(=O)[C@H](CC(=O)O)NC1=O` [[Lys16, Glu30]ShK-amide]: the IC50 in test [1] is 0.105 nM; on hKv1.3 it was 0.028 nM; in test [2], 0.144 nM.
